These molecules were tested against T1, CETP (Homo sapiens, UniProt P11597) (assay: Assay of CETP Inhibition using Purified Components (Reconstituted Buffer Assay)). Settings: IC50, Inhibition of CETP activity in reconstituted buffer assay; transfer of [3H]CE from HDL to LDL.
T1 sequence (P11597 18-493): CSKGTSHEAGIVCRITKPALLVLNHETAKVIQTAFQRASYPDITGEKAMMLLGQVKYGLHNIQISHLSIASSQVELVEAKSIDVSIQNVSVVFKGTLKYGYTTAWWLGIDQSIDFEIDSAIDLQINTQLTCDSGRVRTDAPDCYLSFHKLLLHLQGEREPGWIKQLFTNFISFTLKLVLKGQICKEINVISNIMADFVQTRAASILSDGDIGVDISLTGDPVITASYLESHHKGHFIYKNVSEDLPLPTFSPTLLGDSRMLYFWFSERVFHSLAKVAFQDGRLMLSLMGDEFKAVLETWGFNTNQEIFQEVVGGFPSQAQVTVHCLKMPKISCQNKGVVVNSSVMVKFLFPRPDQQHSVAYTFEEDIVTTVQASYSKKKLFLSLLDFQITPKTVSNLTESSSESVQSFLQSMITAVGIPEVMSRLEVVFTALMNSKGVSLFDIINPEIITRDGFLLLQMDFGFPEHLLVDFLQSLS
Assay type: biochemical
Parameters: made in house; host or cells: CHO cells (serum-free conditioned medium)
Description: Assay of CETP Inhibition using Purified Components (Reconstituted Buffer Assay)
The ability of compounds to inhibit CETP activity was assessed using an in vitro assay that measured the rate of transfer of radiolabeled cholesteryl ester ([^3H]CE) from HDL donor particles to LDL acceptor particles. Details of the assay are provided by Glenn, K. C. et al. (Glenn and Melton, “Quantification of Cholesteryl Ester Transfer Protein (CETP): A) CETP Activity and B) Immunochemical Assay of CETP Protein,” Meth. Enzymol., 263, 339-351 (1996)). Human recombinant CETP can be obtained from the serum-free conditioned medium of CHO cells transfected with a cDNA for CETP and purified as described by Wang, S. et al. (J. Biol. Chem. 267, 17487-17490 (1992)). To measure CETP activity, [^3H]CE-labeled-HDL, LDL, CETP and assay buffer (50 mM tris(hydroxymethyl)aminomethane, pH 7.4; 150 mM sodium chloride; 2 mM ethylenediamine-tetraacetic acid (EDTA); 1% bovine serum albumin) were incubated in a final volume of 200 μL, for 2 hours at 37° C. in 96 well plates. […] The inhibitors were then diluted 1:1 with CETP in assay buffer, and then 25 μL of that solution was mixed with 175 μL of lipoprotein pool for assay. Following incubation, LDL was differentially precipitated by the addition of 50 μL of 1% (w/v) dextran sulfate/0.5 M magnesium chloride, mixed by vortex, and incubated at room temperature for 10 minutes. A potion of the solution (200 μL) was transferred to a filter plate (Millipore). After filtration, the radioactivity present in the precipitated LDL was measured by liquid scintillation counting.
This value was defined as the IC50.
Examples of IC50 values determined by these methods are specified in Table 9.
`OC(CN(Cc1cccc(OC(F)(F)F)c1)c1ccc(Oc2ccccc2)cc1)C(F)(F)F` (centres unmarked) [Example 133] showed an IC50 of 25 µM.

Same assay, conditions: Inhibition of CETP activity in reconstituted buffer assay; transfer of [3H]CE from HDL to LDL; read-out: IC50
In the case of `OC(CN(Cc1ccc(OCc2ccccc2)c(OCc2ccccc2)c1)c1cccc(OC(F)(F)F)c1)C(F)(F)F` (centres unmarked) [Example 100], the IC50 is reported as 90 µM.
With `CCOc1cccc(CN(CC(O)C(F)(F)F)c2cccc(OC(F)(F)F)c2)c1` (centres unmarked) [Example 101] the IC50 was 6 µM.
Molecule `CC(=O)Oc1cccc(CN(CC(O)C(F)(F)F)c2cccc(OC(F)(F)F)c2)c1` (centres unmarked) [Example 102] has an IC50 of 60 µM.
Work on `OCCOc1cccc(CN(CC(O)C(F)(F)F)c2cccc(OC(F)(F)F)c2)c1` (centres unmarked) [Example 103] yielded an IC50 of 35 µM.
`OC(CN(Cc1ccc2c(c1)OCCO2)c1cccc(OC(F)(F)F)c1)C(F)(F)F` (centres unmarked) [Example 105] showed an IC50 of 35 µM.
In the case of `COc1cc(CN(CC(O)C(F)(F)F)c2cccc(OC(F)(F)F)c2)ccc1OCc1ccccc1` (centres unmarked) [Example 106], the IC50 is reported as 30 µM.
In the case of `OC(CN(Cc1cc(OCc2ccccc2)cc(OCc2ccccc2)c1)c1cccc(OC(F)(F)F)c1)C(F)(F)F` (centres unmarked) [Example 107], the IC50 is reported as 75 µM.
For `OC(CN(Cc1cccc(Oc2cccc(C(F)(F)F)c2)c1)c1cccc(C(F)(F)F)c1)C(F)(F)F` (centres unmarked) [Example 108], the IC50 was 60 µM.
Molecule `OC(CN(Cc1cccc(Oc2ccccc2)c1)c1cccc(C(F)(F)F)c1)C(F)(F)F` (centres unmarked) [Example 109] has an IC50 of 25 µM.
With `OC(CN(Cc1cccc(Oc2cccc(C(F)(F)F)c2)c1)c1ccc(C(F)(F)F)cc1)C(F)(F)F` (centres unmarked) [Example 110] the IC50 was 60 µM.
Work on `OC(CN(Cc1cccc(Oc2ccccc2)c1)c1ccc(C(F)(F)F)cc1)C(F)(F)F` (centres unmarked) [Example 111] yielded an IC50 of 65 µM.
With `O=[N+]([O-])c1cccc(CN(CC(O)C(F)(F)F)c2cccc(Oc3ccccc3)c2)c1` (centres unmarked) [Example 113] the IC50 was 20 µM.
Molecule `OC(CN(Cc1cccc(Oc2cc(Cl)cc(Cl)c2)c1)c1cccc(Oc2ccccc2)c1)C(F)(F)F` (centres unmarked) [Example 114] has an IC50 of 40 µM.
With `COc1ccc(CN(CC(O)C(F)(F)F)c2cccc(OC(F)(F)F)c2)cc1OC` (centres unmarked) [Example 116] the IC50 was 40 µM.
In the case of `CCOc1cc(CN(CC(O)C(F)(F)F)c2cccc(OC(F)(F)F)c2)ccc1OC` (centres unmarked) [Example 117], the IC50 is reported as 25 µM.
`CC(=O)Oc1ccc(CN(CC(O)C(F)(F)F)c2cccc(OC(F)(F)F)c2)cc1OC(C)=O` (centres unmarked) [Example 118] gave an IC50 of 45 µM.
In the case of `COc1cc(CN(CC(O)C(F)(F)F)c2cccc(OC(F)(F)F)c2)ccc1OC(C)=O` (centres unmarked) [Example 119], the IC50 is reported as 70 µM.
With `COc1cccc(CN(CC(O)C(F)(F)F)c2cccc(OC(F)(F)F)c2)c1` (centres unmarked) [Example 121] the IC50 was > 100 µM.
`COc1ccc(CN(CC(O)C(F)(F)F)c2cccc(OC(F)(F)F)c2)cc1` (centres unmarked) [Example 122] was tested, and the IC50 was 8 µM.
In the case of `COc1cccc(CN(CC(O)C(F)(F)F)c2cccc(OC)c2)c1` (centres unmarked) [Example 123], the IC50 is reported as 90 µM.
Molecule `COc1cccc(N(Cc2cccc(OC(F)(F)F)c2)CC(O)C(F)(F)F)c1` (centres unmarked) [Example 124] has an IC50 of 8 µM.
Work on `CCCOc1ccc(CN(CC(O)C(F)(F)F)c2cccc(OC(F)(F)F)c2)cc1` (centres unmarked) [Example 125] yielded an IC50 of 25 µM.
Molecule `OC(CN(Cc1cccc(OC(F)(F)F)c1)c1ccc2c(c1)OCO2)C(F)(F)F` (centres unmarked) [Example 129] has an IC50 of 9 µM.
Work on `OC(CN(Cc1cccc(Oc2ccccc2)c1)c1ccc2c(c1)OCO2)C(F)(F)F` (centres unmarked) [Example 130] yielded an IC50 of 80 µM.
`COc1ccc(N(Cc2cccc(OC(F)(F)F)c2)CC(O)C(F)(F)F)cc1OC` (centres unmarked) [Example 132] gave an IC50 of 25 µM.
For `OC(CN(Cc1cccc(OC(F)(F)F)c1)c1ccc(OC(F)(F)F)cc1)C(F)(F)F` (centres unmarked) [Example 134], the IC50 was 6 µM.
With `CCCCOc1ccc(N(Cc2cccc(OC(F)(F)F)c2)CC(O)C(F)(F)F)cc1` (centres unmarked) [Example 135] the IC50 was 20 µM.
`OC(CN(Cc1cccc(OC(F)(F)F)c1)c1ccc(Cc2ccccc2)cc1)C(F)(F)F` (centres unmarked) [Example 136] gave an IC50 of 12 µM.
In the case of `OC(CN(Cc1ccc2c(c1)OCCO2)c1cccc(Oc2ccccc2)c1)C(F)(F)F` (centres unmarked) [Example 137], the IC50 is reported as 20 µM.
With `CCOc1ccc(CN(CC(O)C(F)(F)F)c2cccc(OC(F)(F)F)c2)cc1OCC` (centres unmarked) [Example 138] the IC50 was 30 µM.
`OC(CN(Cc1cccc(OC(F)(F)F)c1)c1ccc2c(c1)OCCCO2)C(F)(F)F` (centres unmarked) [Example 139] was tested, and the IC50 was 8 µM.

— patent US6723753B2, “Substituted n-benzyl-n-phenyl aminoalcohol compounds useful for inhibiting cholesteryl ester transfer protein activity” (Pharmacia Corporation, priority 2002, dated 2004)
